Reference: patent publication US11795460B2, “Compositions and methods for TTR gene editing and treating ATTR amyloidosis” (Intellia Therapeutics, Inc., priority 2017, dated 2023)

Legend:
TTR [1] = experiment: TTR editing in HEK293_Cas9 cells transfected with dgRNAs (Table 4); assay type: cell-based, human; conditions: HEK293_Cas9 cells (constitutively express Spy Cas9) transfected with dgRNAs
Procedure, shortened: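 Percent editing, taken from amplicon NGS as the fraction of all reads carrying insertions, deletions or substitutions, was measured 24, 48 or 72 h after delivery. Delivery used RNAiMAX lipoplexes of 25 nM each crRNA and trRNA into HEK293 cells stably expressing Spy Cas9.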

TTR [2] = experiment: TTR editing in HUH7 cells transfected with Spy Cas9 mRNA and dgRNAs (Table 5); assay type: cell-based, human; conditions: HUH7 cells co-transfected with Spy Cas9 mRNA (SEQ ID NO:2) and dgRNAs
Procedure, shortened: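 Percent editing is the share of NGS reads at the TTR target carrying insertions, deletions or substitutions, from amplicon sequencing of genomic DNA harvested at 24, 48 or 72 h. HUH7 cells first received Cas9 mRNA (100 ng) by lipofection, then dual-guide RNA (crRNA and tracer, 25 nM each).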

TTR [3] = experiment: TTR editing in HepG2 cells transfected with Spy Cas9 mRNA and dgRNAs (Table 6); assay type: cell-based, human; conditions: HepG2 cells co-transfected with Spy Cas9 mRNA (SEQ ID NO:2) and dgRNAs
Procedure, shortened: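 Percent editing is the share of sequencing reads at the TTR target locus that carry insertions, deletions or substitutions, measured by Illumina amplicon sequencing aligned to hg38. Samples came from HepG2 cells lipofected first with 100 ng Cas9 mRNA and then with dual-guide RNA (25 nM crRNA/tracer), collected 24–72 h later.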

TTR [4] = experiment: TTR editing in primary human hepatocytes transfected with Spy Cas9 protein (RNP) loaded with dgRNAs (Table 8); assay type: cell-based; conditions: dgRNA transfected with Spy Cas9 protein (RNP)
Procedure, shortened: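 Primary human hepatocytes were lipofected (RNAiMAX) with RNP of Spy Cas9 (10 nM) plus pre-annealed crRNA (10 nM) and trRNA (10 nM) and harvested 24, 48 or 72 h later. Target-site amplicons were sequenced on Illumina MiSeq and aligned to hg38; percent editing = reads with indels or substitutions over total reads.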

CUGAGGAGGAAUUUGUAGAA (tested as dual guide RNA, chemistry not given here) [CR003364]
Avg % Deletion (TTR [1]): 16.48%
Avg % Edit (TTR [1]): 35.65%
Avg % Insert (TTR [1]): 19.17%
Avg % Deletion (TTR [2]): 23.03%
Avg % Edit (TTR [2]): 47.13%
Avg % Insert (TTR [2]): 24.68%
Avg % Deletion (TTR [3]): 20.85%
Avg % Edit (TTR [3]): 51.88%
Avg % Insert (TTR [3]): 31.03%
Avg % Deletion (TTR [4]): 11.36%
Avg % Edit (TTR [4]): 35.29%
Avg % Insert (TTR [4]): 23.93%

GCAGGGCGGCAAUGGUGUAG (tested as dual guide RNA, chemistry not given here) [CR003380]
Avg % Deletion (TTR [1]): 44.00%
Avg % Edit (TTR [1]): 47.64%
Avg % Insert (TTR [1]): 3.64%
Avg % Deletion (TTR [2]): 29.29%
Avg % Edit (TTR [2]): 31.76%
Avg % Insert (TTR [2]): 3.29%
Avg % Deletion (TTR [3]): 2.30%
Avg % Edit (TTR [3]): 17.08%
Avg % Insert (TTR [3]): 14.78%
Avg % Deletion (TTR [4]): 0.46%
Avg % Edit (TTR [4]): 8.17%
Avg % Insert (TTR [4]): 7.71%

GCUGCAUGGGCUCACAACUG (tested as dual guide RNA, chemistry not given here) [CR003361]
Avg % Deletion (TTR [1]): 25.78%
Avg % Edit (TTR [1]): 34.45%
Avg % Insert (TTR [1]): 8.66%
Avg % Deletion (TTR [2]): 22.44%
Avg % Edit (TTR [2]): 28.68%
Avg % Insert (TTR [2]): 6.84%
Avg % Deletion (TTR [3]): 2.58%
Avg % Edit (TTR [3]): 14.05%
Avg % Insert (TTR [3]): 11.47%
Avg % Deletion (TTR [4]): 0.56%
Avg % Edit (TTR [4]): 13.08%
Avg % Insert (TTR [4]): 12.52%

GCCGUGGUGGAAUAGGAGUA (tested as dual guide RNA, chemistry not given here) [CR003387]
Avg % Deletion (TTR [1]): 16.92%
Avg % Edit (TTR [1]): 24.68%
Avg % Insert (TTR [1]): 7.75%
Avg % Deletion (TTR [2]): 25.55%
Avg % Edit (TTR [2]): 25.64%
Avg % Insert (TTR [2]): 0.23%
Avg % Deletion (TTR [3]): 0.12%
Avg % Edit (TTR [3]): 1.39%
Avg % Insert (TTR [3]): 1.27%
Avg % Deletion (TTR [4]): 0.11%
Avg % Edit (TTR [4]): 1.79%
Avg % Insert (TTR [4]): 1.68%

CAUUGAUGGCAGGACUGCCU (tested as dual guide RNA, chemistry not given here) [CR003347]
Avg % Deletion (TTR [1]): 20.50%
Avg % Edit (TTR [1]): 21.45%
Avg % Insert (TTR [1]): 0.95%
Avg % Deletion (TTR [2]): 30.79%
Avg % Edit (TTR [2]): 32.16%
Avg % Insert (TTR [2]): 1.64%
Avg % Deletion (TTR [3]): 1.49%
Avg % Edit (TTR [3]): 22.57%
Avg % Insert (TTR [3]): 21.08%
Avg % Deletion (TTR [4]): 0.24%
Avg % Edit (TTR [4]): 66.35%
Avg % Insert (TTR [4]): 66.11%

ACACAAAUACCAGUCCAGCA (tested as dual guide RNA, chemistry not given here) [CR003339]
Avg % Deletion (TTR [1]): 6.98%
Avg % Edit (TTR [1]): 56.37%
Avg % Insert (TTR [1]): 49.39%
Avg % Deletion (TTR [2]): 20.13%
Avg % Edit (TTR [2]): 79.97%
Avg % Insert (TTR [2]): 60.55%
Avg % Deletion (TTR [3]): 55.84%
Avg % Edit (TTR [3]): 68.21%
Avg % Insert (TTR [3]): 12.37%
Avg % Deletion (TTR [4]): 36.21%
Avg % Edit (TTR [4]): 45.06%
Avg % Insert (TTR [4]): 8.85%

UUCUUUGGCAACUUACCCAG (tested as dual guide RNA, chemistry not given here) [CR003357]
Avg % Deletion (TTR [1]): 37.85%
Avg % Edit (TTR [1]): 43.23%
Avg % Insert (TTR [1]): 5.38%
Avg % Deletion (TTR [2]): 30.82%
Avg % Edit (TTR [2]): 36.31%
Avg % Insert (TTR [2]): 6.37%
Avg % Deletion (TTR [3]): 3.46%
Avg % Edit (TTR [3]): 45.83%
Avg % Insert (TTR [3]): 42.37%
Avg % Deletion (TTR [4]): 0.90%
Avg % Edit (TTR [4]): 49.35%
Avg % Insert (TTR [4]): 48.45%

GGGAUUGGUGACGACAGCCG (tested as dual guide RNA, chemistry not given here) [CR003390]
Avg % Deletion (TTR [1]): 23.71%
Avg % Edit (TTR [1]): 28.02%
Avg % Insert (TTR [1]): 4.31%
Avg % Deletion (TTR [2]): 16.49%
Avg % Edit (TTR [2]): 18.97%
Avg % Insert (TTR [2]): 3.31%
Avg % Deletion (TTR [3]): 2.44%
Avg % Edit (TTR [3]): 24.88%
Avg % Insert (TTR [3]): 22.44%
Avg % Deletion (TTR [4]): 0.24%
Avg % Edit (TTR [4]): 16.09%
Avg % Insert (TTR [4]): 15.85%

AGGCAGUCCUGCCAUCAAUG (tested as dual guide RNA, chemistry not given here) [CR003348]
Avg % Deletion (TTR [1]): 13.21%
Avg % Edit (TTR [1]): 35.53%
Avg % Insert (TTR [1]): 22.32%
Avg % Deletion (TTR [2]): 22.71%
Avg % Edit (TTR [2]): 57.14%
Avg % Insert (TTR [2]): 36.08%
Avg % Deletion (TTR [3]): 21.40%
Avg % Edit (TTR [3]): 38.44%
Avg % Insert (TTR [3]): 17.04%
Avg % Deletion (TTR [4]): 9.44%
Avg % Edit (TTR [4]): 23.18%
Avg % Insert (TTR [4]): 13.74%

AAUAGGAGUAGGGGCUCAGC (tested as dual guide RNA, chemistry not given here) [CR003384]
Avg % Deletion (TTR [1]): 16.00%
Avg % Edit (TTR [1]): 17.45%
Avg % Insert (TTR [1]): 1.45%
Avg % Deletion (TTR [2]): 16.29%
Avg % Edit (TTR [2]): 17.03%
Avg % Insert (TTR [2]): 0.84%
Avg % Deletion (TTR [3]): 0.25%
Avg % Edit (TTR [3]): 3.37%
Avg % Insert (TTR [3]): 3.12%
Avg % Deletion (TTR [4]): 0.17%
Avg % Edit (TTR [4]): 3.56%
Avg % Insert (TTR [4]): 3.39%

CCUCCUCUGCCUUGCUGGAC (tested as dual guide RNA, chemistry not given here) [CR003336]
Avg % Deletion (TTR [1]): 25.78%
Avg % Edit (TTR [1]): 29.09%
Avg % Insert (TTR [1]): 3.31%
Avg % Deletion (TTR [2]): 26.56%
Avg % Edit (TTR [2]): 30.05%
Avg % Insert (TTR [2]): 4.14%
Avg % Deletion (TTR [3]): 0.83%
Avg % Edit (TTR [3]): 31.31%
Avg % Insert (TTR [3]): 30.48%
Avg % Deletion (TTR [4]): 0.58%
Avg % Edit (TTR [4]): 30.70%
Avg % Insert (TTR [4]): 30.11%

GAAAGGCUGCUGAUGACACC (tested as dual guide RNA, chemistry not given here) [CR003352]
Avg % Deletion (TTR [1]): 22.99%
Avg % Edit (TTR [1]): 27.90%
Avg % Insert (TTR [1]): 4.91%
Avg % Deletion (TTR [2]): 32.79%
Avg % Edit (TTR [2]): 39.68%
Avg % Insert (TTR [2]): 7.62%
Avg % Deletion (TTR [3]): 4.77%
Avg % Edit (TTR [3]): 44.28%
Avg % Insert (TTR [3]): 39.51%
Avg % Deletion (TTR [4]): 3.21%
Avg % Edit (TTR [4]): 30.48%
Avg % Insert (TTR [4]): 27.27%
